The nature of series [1]: Cytotoxicity against human HeLa cells expressing CD4 and CCR5 assessed as cell viability after 6 days by XTT assay. The class given is cell-based.
Series [2] deals with Human immunodeficiency virus 1. The series can be described thus: Antiviral activity against HIV1 JRFL infected in human HeLa cells expressing CD4 and CCR5 after 3 days by luciferase reporter gene assay. The class given is functional, organism-based. To be noted: Human immunodeficiency virus 1, JRFL, 72 h. A general note: In a reporter assay the amount or activity of a reporter protein is the signal.

Series [3] is described as follows: Solubility of the compound in amorphous form at pH 6.5. To be noted: buffer. The class given is physicochemical.
Series [4] can be described thus: Therapeutic index, ratio of CC50 for human HeLa cells expressing CD4 and CCR5 to EC50 for HIV1 JRFL infected in human HeLa cells expressing CD4 and CCR5. Format: cell-based. The conditions noted are these: read-out: Ratio CC50/EC50.
The nature of series [5]: AUC in rat at 5 mg/kg, po. On the set-up: dose 5 mg/kg, route oral. Format: ADME, organism-based. To be noted: plasma.
Series [6] is described as follows: Clearance in rat at 1 mg/kg, iv. Format: ADME, organism-based. On the set-up: dose 1 mg/kg, route intravenous. The conditions noted are these: in vivo.
Series [7] in a line: Oral bioavailability in rat at 5 mg/kg. Format: ADME, organism-based. To be noted: in vivo.

Converted amounts (≈) assume the structure as drawn.

The term CC50 denotes the concentration at which the toxic effect on the cells reaches its halfway point. In general, EC50 refers to the concentration that produces a half-maximal response. A low value points to greater potency. As to `Cc1cnn(-c2ncnc3c(C(=O)C(=O)N4CCN(C(=O)c5ccccc5)CC4)c[nH]c23)c1`, the CC50 at 144 h in series [1] was greater than 300000 nM. This molecule also returned an EC50 in series [2] of 1.1 nM.
Usually solubility stands for how much of the substance goes into solution per volume. A lower solubility goes with little dissolved substance. Consider `COc1ccccc1-c1ccn(-c2ncnc3c(C(=O)C(=O)N4CCN(C(=O)c5ccccc5)CC4)c[nH]c23)n1`, for which, in series [2], the half-maximal effective concentration (EC50) was determined as 0.36 nM. The molecule further yielded a solubility in series [3] of 4 µg/mL (≈ 7.47 µM).
In the case of `O=C(C(=O)N1CCN(C(=O)c2ccccc2)CC1)c1c[nH]c2c(-c3cccnc3)ncnc12`, the CC50 at 144 h in series [1] is greater than 300000 nM. The 50% effective concentration (EC50) in series [2] is 1.3 nM.
In turn, `CNCCCCNC(=O)c1ccn(-c2ncnc3c(C(=O)C(=O)N4CCN(C(=O)c5ccccc5)CC4)c[nH]c23)n1` showed a 50% effective concentration (EC50) in series [2] of 4.8 nM. Besides, the solubility in series [3] was determined as 1730 µg/mL (≈ 3100 µM).
`N#Cc1ncnc2c(C(=O)C(=O)N3CCN(C(=O)c4ccccc4)CC3)c[nH]c12`: in series [1], the CC50 at 144 h was greater than 300000 nM. Further, in series [2], the midpoint of the response, the EC50, lay at 44 nM.
For the molecule `O=C(C(=O)N1CCN(C(=O)c2ccccc2)CC1)c1c[nH]c2c(-c3cnccn3)ncnc12`, in series [1], the CC50 at 144 h stood at 78000 nM. In series [4], the selectivity ratio was greater than 15000. In series [2], the half-maximal effective concentration (EC50) is 0.25 nM.
In series [2], `O=C(C(=O)N1CCN(C(=O)c2ccccc2)CC1)c1c[nH]c2c(-n3ccc(-c4ccc(F)cc4)n3)ncnc12` returned an EC50 of less than 0.16 nM.
The molecule `O=C(C(=O)N1CCN(C(=O)c2ccccc2)CC1)c1c[nH]c2c(-n3ccc(-c4cccc(C(F)(F)F)c4)n3)ncnc12` gave an EC50 in series [2] of 0.37 nM. For the same molecule, the concentration in solution in series [3] (solubility) came to 60 µg/mL (≈ 105 µM).
As for `O=C(C(=O)N1CCN(C(=O)c2ccccc2)CC1)c1c[nH]c2c(-n3nccn3)ncnc12`, the CC50 at 144 h in series [1] is greater than 150000 nM. The same molecule displayed an EC50 in series [2] of 11 nM.
The like results for `COc1ncnc2c(C(=O)C(=O)N3CCN(C(=O)c4ccccc4)CC3)c[nH]c12` were, in that order, greater than 300000 nM and 4.1 nM.
Consider `O=C(C(=O)N1CCN(C(=O)c2ccccc2)CC1)c1c[nH]c2c(-c3ccncc3)ncnc12`, for which the CC50 at 144 h in series [1] is greater than 300000 nM. The molecule also showed an EC50 in series [2] of 12 nM.
As usually defined, the AUC is concentration integrated over time. As a reminder, the clearance is the volume of plasma or blood freed of the substance per unit of time. Read a high clearance as efficient removal. The term bioavailability denotes dose-corrected exposure relative to a reference, in per cent. For `Cc1ncn(-c2ncnc3c(C(=O)C(=O)N4CCN(C(=O)c5ccccc5)CC4)c[nH]c23)n1`, the CC50 at 144 h in series [1] is greater than 150000 nM. In series [5], this molecule yielded an AUC of 4.9 µM·h. The clearance in series [6] worked out at 7.6 mL/min/kg. For the same molecule, in series [7], the bioavailability came to 19%. In addition, it took 0.36 nM to reach a half-maximal effect in series [2] (EC50).
`O=C(C(=O)N1CCN(C(=O)c2ccccc2)CC1)c1c[nH]c2c(-n3ccc(-c4ccccc4)n3)ncnc12`: the EC50 in series [2] is 0.28 nM. The molecule also had a solubility in series [3] of 1 µg/mL (≈ 1.98 µM).
Regarding `O=C(C(=O)N1CCN(C(=O)c2ccccc2)CC1)c1c[nH]c2c(-c3cncnc3)ncnc12`, the cytotoxic concentration (CC50) at 144 h in series [1] was greater than 300000 nM. It took 2.7 nM to reach a half-maximal effect in series [2] (EC50).
As to `O=C(C(=O)N1CCN(C(=O)c2ccccc2)CC1)c1c[nH]c2c(-c3ccccn3)ncnc12`, the CC50 at 144 h in series [1] was 6000 nM. In series [4], the selectivity ratio is greater than 15000. In series [2], a half-maximal response (EC50) required 0.34 nM.
For the molecule `O=C(C(=O)N1CCN(C(=O)c2ccccc2)CC1)c1c[nH]c2c(Cl)ncnc12`, the CC50 at 144 h in series [1] is greater than 300000 nM. Further, the EC50 in series [2] is 11 nM.
Take `O=C(C(=O)N1CCN(C(=O)c2ccccc2)CC1)c1c[nH]c2c(-n3cncn3)ncnc12`: in series [1], the 50% cytotoxic concentration (CC50) at 144 h is greater than 300000 nM. Also, the AUC in series [5] was 0.83 µM·h. The clearance in series [6] came to 35 mL/min/kg. This molecule also returned a bioavailability in series [7] of 15%. Besides, the 50% effective concentration (EC50) in series [2] worked out at 0.1 nM.
`Cc1cc(-c2ncnc3c(C(=O)C(=O)N4CCN(C(=O)c5ccccc5)CC4)c[nH]c23)on1`: the CC50 at 144 h in series [1] is 177000 nM. Also, a half-maximal response in series [2] (EC50) required 0.88 nM.
On the same counts, the results for `O=C(C(=O)N1CCN(C(=O)c2ccccc2)CC1)c1c[nH]c2c(-c3cc[nH]n3)ncnc12` are greater than 300000 nM and 0.31 nM.
On the same counts, the results for `CN1CCN(c2ncnc3c(C(=O)C(=O)N4CCN(C(=O)c5ccccc5)CC4)c[nH]c23)CC1` are greater than 300000 nM and greater than 5000 nM.
With `CCOc1ncnc2c(C(=O)C(=O)N3CCN(C(=O)c4ccccc4)CC3)c[nH]c12`, the half-maximal cytotoxic concentration (CC50) at 144 h in series [1] is greater than 150000 nM. Further, the midpoint of the response in series [2], the EC50, lay at 12 nM.
In series [2], `COc1ccc(-c2ccn(-c3ncnc4c(C(=O)C(=O)N5CCN(C(=O)c6ccccc6)CC5)c[nH]c34)n2)cc1` gave an EC50 of 0.24 nM. The molecule also yielded a solubility in series [3] of 1 µg/mL (≈ 1.87 µM).
Turning to `Cc1ccn(-c2ncnc3c(C(=O)C(=O)N4CCN(C(=O)c5ccccc5)CC4)c[nH]c23)n1`, the CC50 at 144 h in series [1] is greater than 300000 nM. Moreover, in series [5], the area under the curve (AUC) was 17.8 µM·h. Further, the clearance in series [6] turned out to be 4.8 mL/min/kg. In series [7], this molecule yielded a bioavailability of 45%. In series [2], this molecule showed a half-maximal effective concentration (EC50) of 0.15 nM. The amount in solution in series [3] (solubility) came to 8 µg/mL (≈ 18 µM).
As for `O=C(C(=O)N1CCN(C(=O)c2ccccc2)CC1)c1c[nH]c2c(-c3ccnnc3)ncnc12`, the CC50 at 144 h in series [1] is greater than 300000 nM. The same molecule came in with a concentration giving a half-maximal response (EC50) in series [2] of 5.2 nM.
`O=C(O)c1ccn(-c2ncnc3c(C(=O)C(=O)N4CCN(C(=O)c5ccccc5)CC4)c[nH]c23)n1` registered an EC50 in series [2] of 0.76 nM. Further, the concentration in solution in series [3] (solubility) was 1070 µg/mL (≈ 2260 µM).
With `CC(=O)c1ncnc2c(C(=O)C(=O)N3CCN(C(=O)c4ccccc4)CC3)c[nH]c12`, in series [1], the CC50 at 144 h is greater than 300000 nM. The molecule also gave an EC50 in series [2] of 18 nM.
`CN(C)C(=O)c1ccn(-c2ncnc3c(C(=O)C(=O)N4CCN(C(=O)c5ccccc5)CC4)c[nH]c23)n1` registered an EC50 in series [2] of 2 nM.
As for `O=C(C(=O)N1CCN(C(=O)c2ccccc2)CC1)c1c[nH]c2c(-n3ccc(-c4ccccn4)n3)ncnc12`, in series [2], the concentration giving a half-maximal response (EC50) stood at 0.15 nM. In addition, the concentration in solution in series [3] (solubility) was 8 µg/mL (≈ 15.8 µM).
